Target: Aldo-keto reductase family 1 member B1 (Homo sapiens, UniProt P15121)
Assay: IC50 Activity Assays
Conditions: pH 7; 25 °C
Procedure: The final reaction volume was 500uL per reaction. All compounds were dissolved in dimethyl sulphoxide, and the corresponding solution was added to the cell and incubated for 5 min at 25 degrees Celsius prior to the addition of the substrate. The reaction was initiated by the addition of 1mM glyceraldehyde, and the decrease in optical density at 340nm was monitored for 3 min at 25 degrees Celsius in a UV-vis spectrophotometer.

Row | SMILES | IC50 [nM]
1 | O=C(O)COc1cc(Cl)ccc1C(=O)NCc1c(F)cc(Br)cc1F [MK408] | 1190
2 | O=C(O)COc1cc(Cl)ccc1C(=O)NCc1c(F)cc(I)cc1F [MK409] | 1360
3 | O=C(O)COc1cc(Cl)ccc1C(=O)NCc1ccc(I)cc1 [MK257] | 1900

Now those with a lower IC50, led by results:

Row | IC50 [nM] | SMILES
4 | 400 | O=C(O)COc1cc(Cl)ccc1C(=O)NCc1ccc(Br)cc1F [IDD388]
5 | 300 | O=C(O)COc1cc(Cl)ccc1C(=O)NCc1c(F)c(F)c(Br)c(F)c1F [MK319]
6 | 710 | O=C(O)COc1cc(Cl)ccc1C(=O)NCc1ccc(Br)cc1 [MK181]
7 | 190 | O=C(O)COc1cc(Cl)ccc1C(=O)NCc1ccc(I)cc1F [MK315]

From BindingDB's records for doi:10.1021/cb400526n (Academy of Sciences of The Czech Republic, 2013)
